“Also recorded” adds a separate entry of the source.
Legend:
Type in all cases: in vivo, Arabidopsis thaliana
[1] = system: AtTSB1 transgenic plants (TM1, TM3, TM4); experiment: Free Trp content analysis (GC-MS), TSB transgenic plants; details: for Endogenous contents of tryptophan: two-week old plants
Protocol: (§1) Two-week old wild-type and transgenic plants were harvested from germination medium with or without 50 μM 5MT. Endogenous free tryptophan analysis was performed described previously (Edlund et al., 1995) with some modification. Cell extracts were prepared from approximately 50 mg dry weight. Frozen tissues were ground with methanol under continuous shaking for 24 h at 4° C. After centrifuged, the supernatant was filtered by 0.22 μm membrane (Millipore Millexg). The filtered solution was reduced to 1 ml in a Speed Vac concentrator. The final solution was extracted by SEP column (Water Oasis HLB6 cc) and use 1 ml methanol to elute the extracts. Each 100 μl sample was methylated with 160 μl pyridine and 40 μl […]-N-trimethylsilyl-trifuoroacetamide at 70° C. for 1 hr. The GC-MS analysis was performed according to conditions described by Edlund et al (Edlund et al., 1995).
(§2) To elucidate the possible relation between the accumulation of free Trp content and resistance to 5MT and CdCl2, free Trp content was measured in AtTSB1 transgenic plants. […] The level in the transgenic plants TM1, TM3 and TM4 was 10- to 15-fold higher (5,900-8,900 pmole/g dry weight) than in wild-type plants (587 pmole/g dry weight). […] A similar trend was observed when TC3, TC4 and TC5 transgenic plants were measured for Trp content, with or without CdCl2.

[2] = system: AtTSB1 transgenic Arabidopsis (TH); experiment: Seedling survival of AtTSB1 transgenic (TH) Arabidopsis on medium with 5MT or CdCl2; details: for seedling survival rate: TH, surviving/seeds
wild-type Arabidopsis [3] = experiment: Seedling survival of wild-type Arabidopsis on medium with 5MT or CdCl2; details: WT, 1 week, surviving/seeds
wild-type plants = experiment: Free Trp content analysis (GC-MS), wild-type plants
Protocol: as §1, §2

[4] = system: AtTSB1 transgenic Arabidopsis (TH); experiment: Seedling survival of AtTSB1 transgenic (TH) Arabidopsis on medium with 5MT or CdCl2; details: for seedling survival rate: TH, 2 weeks, surviving/seeds; for survival / growth of transgenic plants: medium containing 75 μM 5MT or 300 μM CdCl2
Protocol: (§3) Arabidopsis thaliana (L.) Hyen. ecotype Columbia was grown in controlled environment chambers at 24° C., 70% relative humidity, with 24 h photoperiod (about 120 μmol m^−2s^−1). To transform Arabidopsis plants, we used the floral dip method described previously (Clough and Bent, 1998). To transgenic plants constitutively expressing AtTSB1, were selected on MS medium with 20 ppm hygromycin (Murashige and Skoog 1962). The sensitivity of wild type and transgenic T2 homozygous seeds (T3 generation) to different concentrations of 5MT and CdCl2 were assessed on the basis of the germination percentage of seedlings at the end of 2 weeks. After standardizing the optimal selection concentration of 5MT and CdCl2, the floral dip transformation was again performed to evaluate the selection efficiency between TSB1 and conventional hydromycin selection systems.
(§4) Different concentrations of 5MT (0, 25, 50, 75, 100 and 200 μM) and CdCl2 (0, 50, 100, 200, 300, 400 and 500 μM) were evaluated in order to select the transformants constitutively expressing AtTSB1 gene and in these experiments untransformed wild-types used as negative control. Sixty seeds of each wild-type and transgenic seeds were germinated on medium containing various concentrations of 5MT for 2 weeks, and the number of surviving plants recorded (Table 1). Under all the tested conditions, both wild-type and transgenic seeds could germinate almost equally. […] In the meantime, all seedlings on medium containing less than 50 μM 5MT survived selection even after 2 weeks. Thus, 75 μM 5MT is the optimum concentration for the selection of putative transformants.
(§5) A total of one hundred seeds each of wild-type and transgenic plants were germinated on medium containing different concentrations of CdCl2, for 2 weeks, and the survival was recorded (Table 2). The germination rate in wild-type and transgenic seedlings was almost equal on the medium containing CdCl2 concentrations up to 300 μM. […] All the wild-type and transgenic seedlings survived even after 2 weeks on medium containing CdCl2 less than 100 μM. From these observations, we concluded that 300 μM CdCl2 is the optimal concentration needed for selecting putative transformants.

wild-type Arabidopsis [5] = experiment: Seedling survival of wild-type Arabidopsis on medium with 5MT or CdCl2; details: for seedling survival rate: WT, surviving/seeds; for survival of wild type / non-transformed plants: medium containing 75 μM 5MT or 300 μM CdCl2; for optimum concentration for the selection of putative transformants: wild-type versus transgenic seedlings
Protocol: as §3, §4, §5

With `Cc1ccc2[nH]cc(C[C@H](N)C(=O)O)c2c1` [5MT, 5-methyl-tryptophan] the “Endogenous contents of tryptophan” value ([1]; TM1 + 5MT 50 μM) was 5,200 ± 14 pmole/g g · DW, the “Endogenous contents of tryptophan” value ([1]; TM3 + 5MT 50 μM) was 5,100 ± 11 pmole/g g · DW and the “Endogenous contents of tryptophan” value ([1]; TM4 + 5MT 50 μM) was 7,200 ± 10 pmole/g g · DW. For the same compound, the “level of free Trp” value ([1]; transgenic plants TM1, TM3 and TM4, 5MT in the medium) was 5,100-7,200 pmole/g dry weight, the seedling survival rate ([2]; 5MT 50 μM, 1 week) was 40/40 and the seedling survival rate ([2]; 5MT 50 μM, 2 weeks) was 60/60. For the same compound, the seedling survival rate ([2]; 5MT 75 μM, 1 week) was 60/60, the seedling survival rate ([2]; 5MT 75 μM, 2 weeks) was 60/60 and the seedling survival rate ([2]; 5MT 100 μM, 1 week) was 60/60. The seedling survival rate ([2]; 5MT 200 μM, 1 week) was 60/60, the seedling survival rate ([2]; 5MT 200 μM, 2 weeks) was 18/60 and the “resistance of transgenic seedlings” value ([2]; all concentrations of 5MT tested (100 and 200 μM)) was “showed resistance”. For the same compound, the seedling survival rate (wild-type Arabidopsis [3]; 5MT 75 μM) was 60/60, the seedling survival rate (wild-type Arabidopsis [3]; 5MT 100 μM) was 25/60 and the “Endogenous contents of tryptophan” value (wild-type plants; wild type + 5MT 50 μM, two-week old plants) was 125 ± 6 pmole/g g · DW. For the same compound, the “level of free Trp” value (wild-type plants; wild-type plants, 5MT in the medium) was 125 pmole/g dry weight, the “reduction of the level of free Trp” value (wild-type plants; wild-type plants, 5MT in the medium versus without) was “fivefold” and the seedling survival rate ([4]; 5MT 25 μM) was 60/60. For the same compound, the seedling survival rate ([4]; 5MT 100 μM) was 34/60, the “survival / growth of transgenic plants” value [4] was “grew and survived” and the survival rate ([4]; transgenic seedlings, 75 μM 5MT) was 100%. For the same compound, the “growth of wild-type plants” value (wild-type Arabidopsis [5]; 75 μM and higher (100 and 200 μM) 5MT, after 2 weeks) was “turned pale green and ceased to grow”, the seedling survival rate (wild-type Arabidopsis [5]; 5MT 25 μM, 1 week) was 60/60 and the seedling survival rate (wild-type Arabidopsis [5]; 5MT 25 μM, 2 weeks) was 24/60. The seedling survival rate (wild-type Arabidopsis [5]; 5MT 50 μM, 1 week) was 60/60, the seedling survival rate (wild-type Arabidopsis [5]; 5MT 50 μM, 2 weeks) was 10/60 and the seedling survival rate (wild-type Arabidopsis [5]; 5MT 75 μM, 2 weeks) was 0/60. For the same compound, the seedling survival rate (wild-type Arabidopsis [5]; 5MT 100 μM, 2 weeks) was 0/60, the seedling survival rate (wild-type Arabidopsis [5]; 5MT 200 μM, 1 week) was 12/60 and the seedling survival rate (wild-type Arabidopsis [5]; 5MT 200 μM, 2 weeks) was 0/60. The “survival of wild type / non-transformed plants” value (wild-type Arabidopsis [5]) was “did not survive; also recorded: deteriorated” and the “optimum concentration for the selection of putative transformants” value (wild-type Arabidopsis [5]; 2 weeks) was 75 µM.

`[Cl][Cd][Cl]` [CdCl2] was tested, and the “transgenic seedlings greener than controls” value ([2]; 300 μM CdCl2, after 2 weeks) was 98%, the seedling survival rate ([2]; CdCl2 50 μM, 1 week) was 100/100 and the seedling survival rate ([2]; CdCl2 50 μM, 2 weeks) was 100/100. For the same compound, the seedling survival rate ([2]; CdCl2 100 μM, 1 week) was 100/100, the seedling survival rate ([2]; CdCl2 200 μM, 1 week) was 100/100 and the seedling survival rate ([2]; CdCl2 300 μM, 1 week) was 100/100. For the same compound, the seedling survival rate ([2]; CdCl2 400 μM, 1 week) was 100/100, the seedling survival rate ([2]; CdCl2 400 μM, 2 weeks) was 80/100 and the seedling survival rate ([2]; CdCl2 500 μM, 1 week) was 100/100. For the same compound, the seedling survival rate (wild-type Arabidopsis [3]; CdCl2 200 μM) was 100/100, the seedling survival rate (wild-type Arabidopsis [3]; CdCl2 300 μM) was 80/100 and the seedling survival rate (wild-type Arabidopsis [3]; CdCl2 400 μM) was 12/100. The “growth of transgenic plants” value ([4]; 300 μM CdCl2, after 2 weeks) was “slightly inhibited”, the seedling survival rate ([4]; CdCl2 100 μM) was 100/100 and the seedling survival rate ([4]; CdCl2 200 μM) was 95/100. For the same compound, the seedling survival rate ([4]; CdCl2 300 μM) was 98/100, the seedling survival rate ([4]; CdCl2 500 μM) was 62/100 and the “survival / growth of transgenic plants” value [4] was “grew and survived”. The seedling survival rate (wild-type Arabidopsis [5]; CdCl2 50 μM, 1 week) was 100/100, the seedling survival rate (wild-type Arabidopsis [5]; CdCl2 50 μM, 2 weeks) was 100/100 and the seedling survival rate (wild-type Arabidopsis [5]; CdCl2 100 μM, 1 week) was 100/100. For the same compound, the seedling survival rate (wild-type Arabidopsis [5]; CdCl2 100 μM, 2 weeks) was 100/100, the seedling survival rate (wild-type Arabidopsis [5]; CdCl2 200 μM, 2 weeks) was 30/100 and the seedling survival rate (wild-type Arabidopsis [5]; CdCl2 300 μM, 2 weeks) was 0/100. For the same compound, the seedling survival rate (wild-type Arabidopsis [5]; CdCl2 400 μM, 2 weeks) was 0/100, the seedling survival rate (wild-type Arabidopsis [5]; CdCl2 500 μM, 1 week) was 8/100 and the seedling survival rate (wild-type Arabidopsis [5]; CdCl2 500 μM, 2 weeks) was 0/100. For the same compound, the “survival of wild type / non-transformed plants” value (wild-type Arabidopsis [5]) was “did not survive; also recorded: deteriorated” and the “optimum concentration for the selection of putative transformants” value (wild-type Arabidopsis [5]; 2 weeks) was 300 µM.
